# A melting point compilation (Tetko et al.; mined from patent text by program, amines drawn as free bases though some values may be those of a salt)
row,SMILES,melting point [°C]
1,Cn1nc2ccccc2c1C(=O)NCC1CCN(CCc2ccc(F)cc2F)CC1,122 to 126
2,Nc1cccc(NCCO)c1[N+](=O)[O-],129
3,COc1cccc2c(O)cnnc12,160 to 163
4,COC(=O)Nc1cccc(C(=O)C=CN(C)C)c1,210 to 211
5,NS(=O)(=O)c1ccc(N2CCN(Cc3cn4cc(Cl)ccc4n3)CC2)cc1,255 to 256
6,Fc1ccc(N2CCC(N3CCc4ccccc43)CC2)cc1,120 to 122
7,Cc1cccc(C)c1N(CC(C)O)S(C)(=O)=O (stereo not given),81 to 84
8,CNc1nc(-c2cccc(-c3cccnc3)c2)c2cc(OC)c(OC)cc2n1,186 to 188
9,CCc1sc2c(c1C)c(=O)c1cccc(C(=O)O)c1n2Cc1ccc(-c2ccccc2C#N)cc1,203 to 205
10,Nc1nc(-c2cc(Cl)ccc2Cl)nc(N2CCC(Cc3ccccc3)CC2)n1,159 to 161
11,O=C1Cc2cccc(C(=O)c3ccccc3F)c2N1,209 to 210
12,Nc1nc(-c2cc(Cl)ccc2Cl)nc(N2CC(O)CC2C(=O)O)n1 (stereo not given),138 to 145
13,CON=c1cc(C)c2ccccc2[nH]c1=O,190 to 193
14,CC(C)Nc1cc(=O)n(-c2ccccc2)nc1-c1nc[nH]n1,203 to 205
15,N#Cc1ncn2c1NCC=C2c1cccc(C(F)(F)F)c1,241 to 243
16,Clc1c2ccccc2nc2c1cnn2C1CCCC1,97 to 98
17,O=C(O)CN1C(=S)c2cccc3c(Br)ccc1c23,253
18,CS(=O)(=O)c1ccc(C2=C(c3ccc(F)cc3)C(=O)N(C3CC3)C2)cc1,170 to 172
19,O=C1NCCN1C1CCN(CCC2CS(=O)c3ccccc3O2)CC1 (stereo not given),145
20,Cc1ccc2c(cc(CCCC(=O)O)n2S(=O)(=O)c2ccccc2)n1,172 to 180
21,CC(C)CCCC(=S)SCC(C)C,43 to 44
22,COc1cc(Cl)c([N+](=O)[O-])cc1C(=O)O,184 to 185
23,CC(C)Cn1c(CN2CCCS2(=O)=O)nc2c(N)nc3c(c21)CCCC3,200 to 203
24,O=C(Nc1cccc(CC(=O)OCc2ccccc2)c1)NC1C(=O)N(CC(=O)N2CCCC2)c2ccccc2N(c2ccccc2F)C1=O (stereo not given),104 to 106
25,CP(=O)(O)CC(=O)CN,148 to 149
26,O=C(O)CN1C(=O)C(=Cc2ccc(C(=O)O)cc2)SC1=S,> 300
27,CN1Cc2nc3ccccc3c(=O)n2-c2ccccc2C1=O,204 to 206

row,SMILES,melting point [°C]
1,CN1C(=O)C(CC(=O)Nc2ccc(Cl)cc2)N=C(c2ccccc2)c2ccccc21 (stereo not given),238 to 240
2,NC1CCN(CC23CC(c4ccccc42)c2ccccc23)CC1,116 to 119
3,COc1ccc(-c2cnccn2)cc1,86 to 87
4,COC(=O)c1ccc(OCCCNc2ccc(NCc3ccc4c(c3)OCCO4)cc2)cc1,185 to 188
5,CCC(CC)CNC(=O)c1ccc2cccc(Cc3ccc(C(=O)O)cc3OC)c2c1,198 to 199
6,CCCCC(CC)CNCCOc1ccc2ccccc2c1 (stereo not given),92
7,C=CCNC(=O)N1CC(Oc2ccccn2)C1,72 to 76
8,CN(C)c1nc(N)c2ccccc2n1,141 to 142
9,Cn1c(C(F)(F)F)cc(=O)n(-c2cc(O)c(Br)cc2F)c1=O,192
10,OCc1nnc2n1-c1ccccc1C(c1ccccc1Cl)=NC2,196 to 197
11,CCOC(=O)C(=Cc1cccc(O)c1)C(=O)OCC,72 to 74
12,CC1(C)CC(N2C(=O)C=CC2=O)CC(C)(C)N1OC1CCCCC1,135 to 139
13,CS(=O)(=O)c1ccc(-c2cc3c(cc2-c2ccc(F)cc2)OCO3)cc1,173 to 174
14,CC(C)n1nc(-c2c(OCc3ccccn3)nc(N)nc2-c2ccccc2)ccc1=O,177 to 178
15,Nc1nc2c(c(=O)[nH]1)CCCC2,> 300
16,COc1cc(C(CCC(C(=O)O)c2cc(OC)c(OC)c(OC)c2)C(=O)O)cc(OC)c1OC (stereo not given),226 to 233
17,O=C(c1ccccc1)c1ccc2n1CCCCC2C(=O)O (stereo not given),163 to 165
18,Cc1nn(C)c(OCC(=O)C(C)(C)C)c1C(=O)c1ccc(Cl)cc1Cl,104 to 105
19,CCOC(=O)C(O)(CC(C)(C)c1cc(F)ccc1OC)C(F)(F)F (stereo not given),38 to 39
20,FC(F)(F)c1cccc(CSc2nnc(-c3ccn4ncnc4c3)o2)c1,147 to 148
21,Cc1cc(C(=O)O)ccc1C1=CCCCC1,173 to 175
22,COC1(OC)CCC2=C(CC(C)C3C2CCC2(C)CCCC32)C1 (stereo not given),57
23,COc1ccc(CN(C)CCCOc2ccc(NC(=O)c3cccc4c(=O)c5ccccc5[nH]c34)cc2)cc1OC,130
24,CC(C)(C)OC(=O)NN=C1CCN(C(=O)OC(C)(C)C)CC1,172 to 174
25,COC(=O)c1ccc(N2CCCC2=O)cc1,118 to 120
26,O=CNc1ccsc1I,100 to 107
27,CCCC(C)(CCl)c1cc(Cl)nnc1Cl (stereo not given),68 to 69

row,SMILES,melting point [°C]
1,CC(C)(C)OC(=O)c1cn(-c2cccnc2)cn1,81 to 82
2,Cc1cc(N)cnc1CCCC#N,103 to 105
3,Cc1nc2cc(C(=O)NC3CC3)c(NC(=O)c3cc(C(F)(F)F)nn3-c3ncccc3Cl)c(Cl)c2n1C,233 to 235
4,CC(=O)c1cccc(-c2ccc(COc3ccc(C(=O)O)c(O)c3)cc2)c1,215 to 220
5,CCCCCNS(=O)(=O)NC(=O)/C=C/c1c(C)nn(C)c1-n1ccc2cc(Cl)ccc21,184
6,O=[N+]([O-])c1ccc(C#CBr)cc1,170
7,COCCn1nnc2cc3c(=O)n(C(C)Cn4nccn4)nnc3cc2c1=O (stereo not given),145 to 146
8,COC(=O)N1c2cc(OC)c(OC)cc2C(=O)CC1C (stereo not given),156 to 158
9,CCOC(=O)CC(=O)c1cc(Cl)c(F)c(Cl)c1F,133
10,CCN(CC)C(=N)N[N+](=O)[O-],96 to 97
11,CCOC(=O)C1=C(C#N)NC(C)=C(C(=O)OCCN(CC)CC)C1c1cccc([N+](=O)[O-])c1 (stereo not given),150 to 152
12,Nc1sc2c(c1C(=O)c1ccsc1)CCN(Cc1ccccc1)C2,131 to 133
13,COc1ccc(NC(=O)CBr)c([N+](=O)[O-])c1,94 to 98
14,CCCCc1cn(CCCC)c(=O)n1Cc1ccc(-c2ccccc2-c2nnn[nH]2)nc1,170 to 171
15,CN(C)C=C(C#N)C(=O)c1ccsc1,118 to 119
16,O=C(Nc1nc(C(F)(F)F)c(I)s1)c1cc(C(F)(F)F)cc(C(F)(F)F)c1,172 to 173
17,COC(=O)c1c(C(=O)OC)c2n(c1C)Cc1[nH]c3ccccc3c1C2,252 to 253
18,O=S(=O)(NCCCN1c2ccccc2CCc2ccc(Cl)cc21)c1ccc(OC(F)(F)F)cc1,119 to 121
19,COc1ccc2c(c1)c1c(n2C)C2(C)CCC(=O)N2CC1 (stereo not given),164 to 167
20,Cc1ccc(-c2cc(C(O)/C=C/c3ccc(C(=O)O)cc3)cc3c2C(C)(C)CCC3(C)C)cc1 (stereo not given),179
21,Nc1ccc(S(=O)c2ccc(-c3ccc(Br)cc3)cc2)cc1N (stereo not given),161 to 164
22,CNCC(O)COc1ccc(C#N)cc1 (stereo not given),100 to 102
23,CCN(CC)C(=O)Nc1ccc(Oc2ccc3sncc3c2)c(Cl)c1,141
24,O=C(O)C1CCCN(CCC#Cc2ccccc2)C1 (stereo not given),150 to 151
25,COc1ccc(C=C2SC(=O)N(CCc3ccccn3)C2=O)cc1-c1cc2c(cc1C)C(C)(C)CCC2(C)C,170 to 171
26,CC(=O)c1cn2c3c(cccc13)CCC2,106 to 108
27,CC1=CC(=O)CC(C)(C)C1(O)C/C=C(C)/C=C\O (stereo not given),127 to 129

row,SMILES,melting point [°C]
1,COc1ccc(-c2csc(N)n2)cc1OC,198 to 201
2,COc1ccc(Cc2nc(C)c[nH]2)cc1,108 to 109
3,CC(C)(C)c1cc(CN(c2cccnc2)S(=O)(=O)c2ccccc2Br)cc(C(C)(C)C)c1O,105 to 107
4,COc1cc(Cn2c(=O)n(C3CCCCC3)c3cc(Cl)ccc32)ccc1[N+](=O)[O-],176
5,CCNc1nc2ccccc2n(-c2ccc(Cl)cc2)c1=O,192 to 195
6,COc1ccc(N2N=C(N)CC2c2ccccc2)cc1 (stereo not given),164 to 166
7,O=C(c1nc2ccc(O)cc2[nH]1)N1CCC(=Cc2ccc(Cl)cc2)CC1,88 to 89
8,CCCc1nc(-c2ccc(OCCCn3ccnc3)cc2)no1,57 to 58
9,CCOc1ccccc1C=[N+]([O-])C1CCCC1,87.3
10,CCOC(=O)C1=C(C)NC(COC(C)=O)=C(C(=O)OCC)C1c1ccccc1Cl (stereo not given),98
11,CCC12CCC(=O)C3Oc4c(O)ccc5c4C31CCN(CC1CC1)C2C5 (stereo not given),157 to 158
12,Nc1ccc(CN2C(=O)C3(COc4cc5c(cc43)OCCO5)c3ccccc32)cn1 (stereo not given),117 to 119
13,CC(=O)SC[C@H]1CCCCCC[C@H](C(=O)N2C[C@H](O)C[C@H]2C(=O)OCc2ccccc2)NC1=O,145
14,CCN1CCN(Cc2ccc(-c3cc4ncc(C#N)c(Nc5cc(OC)c(Cl)cc5Cl)c4cc3OC)cc2)CC1,126 to 130
15,COc1c(Cl)ccc(-c2cc(N)c(Cl)c(C(=O)OCc3ccccc3)n2)c1Cl,107 to 108
16,O=C1CC(c2ccccc2)c2cc(C(c3ccc(Cl)cc3)n3ccnc3)ccc2N1 (stereo not given),225
17,COc1ccc(CCc2ccncc2)c2cc(C#N)nn12,191 to 192
18,CCOC(=O)C1=C(C)NC(C)=C(C(=O)OCC)C1c1cccc2nonc12,153 to 155
19,CCC(C)n1c(Nc2cc(C(F)(F)F)ccc2C(F)(F)F)nc(C(F)(F)F)c(Cl)c1=O (stereo not given),133 to 135
20,CSc1ccc(-c2c(Cl)ncn2-c2ccc(S(C)(=O)=O)cc2)cc1,216 to 220
21,CC1(C)Oc2ccc(C(N)=S)cc2C(Oc2ccnc(O)c2)C1(C)O (stereo not given),142 to 144
22,NC(=O)c1nccc(Cl)c1Cl,174 to 175
23,O=C(/C=C/c1c[nH]cn1)Oc1ccc([N+](=O)[O-])cc1,220 to 222
24,CC(=O)c1cnn(-c2ccnc3cc(Cl)ccc23)c1,190 to 192
